Measurements: patent US7718681B2, “5-(1,3-Diaryl-1H-pyrazol-4-ylmethylene)-thiazolidine,2,4-dione derivatives useful as anticancer agent” (Korea Research Institute of Chemical Technology, priority 2005, dated 2010)

target: T1, CDC25B (Homo sapiens, UniProt P30305); assay: CDC25B enzyme assay; assay type: biochemical; details: catalytic domain of CDC25B (aa 378-566) GST fusion, 20 μm FDP, 1 hour at room temperature, fluorescence
T1 construct: Catalytic domain of CDC25B (aa 378-566) was expressed and produced in E. coli into a GST fusion protein; GST; made in house; host or cells: E. coli
T1 sequence (P30305 378-566 isoform P30305-2): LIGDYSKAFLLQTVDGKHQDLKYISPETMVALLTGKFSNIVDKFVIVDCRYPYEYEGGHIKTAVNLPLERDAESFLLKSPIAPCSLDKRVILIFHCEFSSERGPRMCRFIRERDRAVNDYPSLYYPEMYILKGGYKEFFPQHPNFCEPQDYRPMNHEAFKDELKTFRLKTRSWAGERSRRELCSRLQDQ
Method: Catalytic domain of CDC25B (aa 378-566) was expressed and produced in E. coli into a GST fusion protein, which was used as zymogen. Enzyme assay was carried out on a 96-well plate, with the final reaction volume per well adjusted to 200 μL. 170 μL of a buffer solution (30 mM Tris buffer, pH 8.5, 75 mM NaCl, 0.67 mM EDTA, 1 mM DTT), 20 μL (0.2 μg) of CDC25B enzyme and 10 μL of the test compound dissolved in DMSO were added, so that the final concentration became 1 μg/mL CDC25B and 20 μm FDP. Measurement was made after culturing at room temperature for 1 hour. FDP and DTT were added to the buffer solution just before assay, so that a fresh status could be maintained. After 1 hour of culturing, fluorescence resultant from the enzymatic reaction was measured at 485 nm (excitation) and 538 nm (emission).
The screened compound was treated to a final concentration of 1, 2, 5 and 10 μm to obtain the % inhibition value. If the inhibitory effect was low (less than 50% at […]), the concentration of the compound was increased to 20 μm and the % inhibition value and the IC50 value were obtained.

IC50 [µM] | SMILES
10.6 | COc1c(Cl)cccc1-c1nn(-c2ccccc2)cc1/C=C1\SC(=O)NC1=O [Compound 66]
2.02 | CCCOc1ccc(-c2nn(-c3ccccc3)cc2/C=C2\SC(=O)N(CCC)C2=O)cc1Br [Compound 85]
11.4 | CCN1C(=O)SC(=Cc2cn(-c3ccccc3)nc2-c2ccccc2Cl)C1=O [Compound 2]
7.2 | CCOc1c(Cl)cccc1-c1nn(-c2ccccc2)cc1/C=C1\SC(=O)N(CC)C1=O [Compound 69]
1.4 | CCOc1c(Br)cc(-c2nn(-c3ccccc3)cc2/C=C2\SC(=O)NC2=O)cc1Br [Compound 151]
5.74 | CC(C)Oc1cc(OC(C)C)cc(-c2nn(-c3ccccc3)cc2/C=C2\SC(=O)NC2=O)c1 [Compound 30]
2.98 | C#CCOc1ccc(-c2nn(-c3ccccc3)cc2/C=C2\SC(=O)NC2=O)cc1Br [Compound 100]
3.25 | COc1ccc(-c2nn(-c3ccccc3)cc2/C=C2\SC(=O)NC2=O)cc1I [Compound 111]
0.57 | CCOc1ccc(-c2nn(-c3ccccc3)cc2C=C2SC(=O)NC2=O)cc1I [Compound 115]
0.17 | C=CCOc1c(Br)cc(-c2nn(-c3ccccc3)cc2/C=C2\SC(=O)NC2=O)cc1Br [Compound 164]
4.99 | C#CCN1C(=O)S/C(=C\c2cn(-c3ccccc3)nc2-c2ccc(OCC=C)c(I)c2)C1=O [Compound 133]
1.48 | CCCOc1ccc(-c2nn(-c3ccccc3)cc2/C=C2\SC(=O)NC2=O)cc1C(C)(C)C [Compound 142]
8.96 | CCN1C(=O)S/C(=C\c2cn(-c3ccccc3)nc2-c2ccccc2Br)C1=O [Compound 5]
0.71 | O=C1NC(=O)/C(=C/c2cn(-c3ccccc3)nc2-c2cc(Br)c(OC(F)F)c(Br)c2)S1 [Compound 178]
5.65 | CCOc1ccc(-c2nn(-c3ccccc3)cc2C=C2SC(=O)NC2=O)cc1Br [Compound 77, 5-[3-(3-bromo-4-ethoxy-phenyl)-1-phenyl-1H-pyrazol-4-ylmethylene]-thiazolidine-2,4-dione]
8.28 | CN1C(=O)S/C(=C\c2cn(-c3ccccc3)nc2-c2cccc([N+](=O)[O-])c2)C1=O [Compound 15, 5-[3-(3-nitro)-1-phenyl-1H-pyrazol-4-ylmethylene]-3-methyl-thiazolidine-2,4-dione]
0.36 | CCCOc1ccc(-c2nn(-c3ccccc3)cc2/C=C2\SC(=O)NC2=O)cc1I [Compound 122]
0.54 | O=C1NC(=O)/C(=C/c2cn(-c3ccccc3)nc2-c2cc(OC3CCCC3)cc(OC3CCCC3)c2)S1 [Compound 41]

test system: C33A human uterine cancer cell line; assay: not given; details: mouse, in vivo

SMILES | negative responses (reduced motion, lack of appetite)
N.N.[Cl][Pt][Cl] [cisplatin, reference compound] | reduced motion or lack of appetite
